≈ marks a conversion by molar mass, not a printed value.
Tested on: Mycobacterium tuberculosis
Test: Antitubercular activity against Mycobacterium tuberculosis
Assay type: functional

| SMILES | MIC [µM] |
| --- | --- |
| CC[C@@H](CO)NCCN[C@@H](CC)CO [ETHAMBUTOL] | 7.6 (≈ 1.55 µg/mL) |
| CN1C/C(=C\c2ccc(Br)cc2)C(=O)[C@]2(C1)[C@H](c1ccc(Br)cc1)[C@@H]1CSCN1[C@@]21C(=O)Nc2ccccc21 | 4.7 (≈ 3.13 µg/mL) |
| CN1C/C(=C\c2ccccc2-c2cccs2)C(=O)[C@]2(C1)[C@H](c1ccccc1-c1cccs1)[C@@H]1CSCN1[C@@]21C(=O)Nc2ccccc21 | 12.1 (≈ 8.13 µg/mL) |
| CO[C@H]1/C=C/O[C@@]2(C)Oc3c(C)c(O)c4c(O)c(c(/C=N/N5CCN(C)CC5)c(O)c4c3C2=O)NC(=O)/C(C)=C\C=C\[C@H](C)[C@H](O)[C@@H](C)[C@@H](O)[C@@H](C)[C@H](OC(C)=O)[C@@H]1C [RIFAMPIN] | 0.1 (≈ 0.0823 µg/mL) |
| COc1ccc(/C=C2\CN(C)C[C@@]3(C2=O)[C@H](c2ccc(OC)cc2OC)[C@@H]2CSCN2[C@@]32C(=O)Nc3ccc(Cl)cc32)c(OC)c1 | 18.9 (≈ 12.5 µg/mL) |
| Cc1ccc(/C=C2\CN(C)C[C@@]3(C2=O)[C@H](c2ccc(C)cc2)[C@@H]2CSCN2[C@@]32C(=O)Nc3ccccc32)cc1 | 23.3 (≈ 12.5 µg/mL) |
| CN1C/C(=C\c2ccccc2Cl)C(=O)[C@]2(C1)[C@H](c1ccccc1Cl)[C@@H]1CSCN1[C@@]21C(=O)Nc2ccc(Cl)cc21 | 5.1 (≈ 3.12 µg/mL) |
| Cc1ccccc1/C=C1\CN(C)C[C@@]2(C1=O)[C@H](c1ccccc1C)[C@@H]1CSCN1[C@@]21C(=O)Nc2ccc([N+](=O)[O-])cc21 | 5.3 (≈ 3.08 µg/mL) |
| COc1ccc(/C=C2\CN(C)C[C@@]3(C2=O)[C@H](c2ccc(OC)cc2OC)[C@@H]2CSCN2[C@@]32C(=O)Nc3ccc([N+](=O)[O-])cc32)c(OC)c1 | 9.4 (≈ 6.32 µg/mL) |
| NC(=O)c1cnccn1 [PYRAZINAMIDE] | 50.8 (≈ 6.25 µg/mL) |
| CN1C/C(=C\c2ccccc2-c2cccs2)C(=O)[C@]2(C1)[C@H](c1ccccc1-c1cccs1)[C@@H]1CSCN1[C@@]21C(=O)Nc2ccc([N+](=O)[O-])cc21 | 5.5 (≈ 3.94 µg/mL) |
| CN1C/C(=C\c2ccc(Cl)cc2Cl)C(=O)[C@]2(C1)[C@H](c1ccc(Cl)cc1Cl)[C@@H]1CSCN1[C@@]21C(=O)Nc2ccc([N+](=O)[O-])cc21 | 0.6 (≈ 0.414 µg/mL) |
| COc1ccc(/C=C2\CN(C)C[C@@]3(C2=O)[C@H](c2ccc(OC)cc2OC)[C@@H]2CSCN2[C@@]32C(=O)Nc3ccccc32)c(OC)c1 | 19.9 (≈ 12.5 µg/mL) |
| COc1ccc(/C=C2\CN(C)C[C@@]3(C2=O)[C@H](c2ccc(OC)cc2)[C@@H]2CSCN2[C@@]32C(=O)Nc3ccc([N+](=O)[O-])cc32)cc1 | 10.3 (≈ 6.31 µg/mL) |
| CN1C/C(=C\c2ccccc2Cl)C(=O)[C@]2(C1)[C@H](c1ccccc1Cl)[C@@H]1CSCN1[C@@]21C(=O)Nc2ccccc21 | 10.9 (≈ 6.28 µg/mL) |
| CN1C/C(=C\c2ccc(Cl)cc2Cl)C(=O)[C@]2(C1)[C@H](c1ccc(Cl)cc1Cl)[C@@H]1CSCN1[C@@]21C(=O)Nc2ccc(Cl)cc21 | 1.2 (≈ 0.816 µg/mL) |
| CN1C/C(=C\c2ccc(Cl)cc2)C(=O)[C@]2(C1)[C@H](c1ccc(Cl)cc1)[C@@H]1CSCN1[C@@]21C(=O)Nc2ccccc21 | 5.4 (≈ 3.11 µg/mL) |
| CN1C/C(=C\c2ccc(Cl)cc2)C(=O)[C@]2(C1)[C@H](c1ccc(Cl)cc1)[C@@H]1CSCN1[C@@]21C(=O)Nc2ccc([N+](=O)[O-])cc21 | 1.3 (≈ 0.808 µg/mL) |
| CN1C/C(=C\c2ccccc2)C(=O)[C@]2(C1)[C@H](c1ccccc1)[C@@H]1CSCN1[C@@]21C(=O)Nc2ccc(Cl)cc21 | 23.1 (≈ 12.5 µg/mL) |
| COc1ccccc1/C=C1\CN(C)C[C@@]2(C1=O)[C@H](c1ccccc1OC)[C@@H]1CSCN1[C@@]21C(=O)Nc2ccccc21 | 22 (≈ 12.5 µg/mL) |
| CC(C)c1ccc(/C=C2\CN(C)C[C@@]3(C2=O)[C@H](c2ccc(C(C)C)cc2)[C@@H]2CSCN2[C@@]32C(=O)Nc3ccc(Cl)cc32)cc1 | 10.1 (≈ 6.33 µg/mL) |

| SMILES | MIC [µM] |
| --- | --- |
| CN1C/C(=C\c2ccc(F)cc2)C(=O)[C@]2(C1)[C@H](c1ccc(F)cc1)[C@@H]1CSCN1[C@@]21C(=O)Nc2ccc(Cl)cc21 | 2.8 (≈ 1.62 µg/mL) |
| CN1C/C(=C\c2ccc(F)cc2)C(=O)[C@]2(C1)[C@H](c1ccc(F)cc1)[C@@H]1CSCN1[C@@]21C(=O)Nc2ccccc21 | 5.7 (≈ 3.1 µg/mL) |
| CN1C/C(=C\c2ccc(Br)cc2)C(=O)[C@]2(C1)[C@H](c1ccc(Br)cc1)[C@@H]1CSCN1[C@@]21C(=O)Nc2ccc(Cl)cc21 | 4.4 (≈ 3.08 µg/mL) |
| CN1C/C(=C\c2ccccc2)C(=O)[C@]2(C1)[C@H](c1ccccc1)[C@@H]1CSCN1[C@@]21C(=O)Nc2ccccc21 | 49.2 (≈ 25 µg/mL) |
| CN1C/C(=C\c2ccc(F)cc2)C(=O)[C@]2(C1)[C@H](c1ccc(F)cc1)[C@@H]1CSCN1[C@@]21C(=O)Nc2ccc([N+](=O)[O-])cc21 | 1.4 (≈ 0.824 µg/mL) |
| COc1ccccc1/C=C1\CN(C)C[C@@]2(C1=O)[C@H](c1ccccc1OC)[C@@H]1CSCN1[C@@]21C(=O)Nc2ccc(Cl)cc21 | 20.8 (≈ 12.5 µg/mL) |
| CN1C/C(=C\c2ccc(Cl)cc2)C(=O)[C@]2(C1)[C@H](c1ccc(Cl)cc1)[C@@H]1CSCN1[C@@]21C(=O)Nc2ccc(Cl)cc21 | 5.1 (≈ 3.12 µg/mL) |
| COc1ccc(/C=C2\CN(C)C[C@@]3(C2=O)[C@H](c2ccc(OC)cc2)[C@@H]2CSCN2[C@@]32C(=O)Nc3ccccc32)cc1 | 22 (≈ 12.5 µg/mL) |
| Cc1ccccc1/C=C1\CN(C)C[C@@]2(C1=O)[C@H](c1ccccc1C)[C@@H]1CSCN1[C@@]21C(=O)Nc2ccccc21 | 23.3 (≈ 12.5 µg/mL) |
| CN1C/C(=C\c2ccc(Cl)cc2Cl)C(=O)[C@]2(C1)[C@H](c1ccc(Cl)cc1Cl)[C@@H]1CSCN1[C@@]21C(=O)Nc2ccccc21 | 4.7 (≈ 3.03 µg/mL) |
| Cc1ccc(/C=C2\CN(C)C[C@@]3(C2=O)[C@H](c2ccc(C)cc2)[C@@H]2CSCN2[C@@]32C(=O)Nc3ccc([N+](=O)[O-])cc32)cc1 | 5.3 (≈ 3.08 µg/mL) |
| CC(C)c1ccc(/C=C2\CN(C)C[C@@]3(C2=O)[C@H](c2ccc(C(C)C)cc2)[C@@H]2CSCN2[C@@]32C(=O)Nc3ccccc32)cc1 | 10.6 (≈ 6.27 µg/mL) |
| CN1C/C(=C\c2ccccc2Cl)C(=O)[C@]2(C1)[C@H](c1ccccc1Cl)[C@@H]1CSCN1[C@@]21C(=O)Nc2ccc([N+](=O)[O-])cc21 | 2.6 (≈ 1.62 µg/mL) |
| COc1ccc(/C=C2\CN(C)C[C@@]3(C2=O)[C@H](c2ccc(OC)cc2)[C@@H]2CSCN2[C@@]32C(=O)Nc3ccc(Cl)cc32)cc1 | 20.8 (≈ 12.5 µg/mL) |
| CN1C/C(=C\c2ccccc2)C(=O)[C@]2(C1)[C@H](c1ccccc1)[C@@H]1CSCN1[C@@]21C(=O)Nc2ccc([N+](=O)[O-])cc21 | 5.6 (≈ 3.09 µg/mL) |
| CN1C/C(=C\c2ccccc2-c2cccs2)C(=O)[C@]2(C1)[C@H](c1ccccc1-c1cccs1)[C@@H]1CSCN1[C@@]21C(=O)Nc2ccc(Cl)cc21 | 11.4 (≈ 8.05 µg/mL) |
| Cc1ccc(/C=C2\CN(C)C[C@@]3(C2=O)[C@H](c2ccc(C)cc2)[C@@H]2CSCN2[C@@]32C(=O)Nc3ccc(Cl)cc32)cc1 | 11 (≈ 6.27 µg/mL) |
| Cc1ccccc1/C=C1\CN(C)C[C@@]2(C1=O)[C@H](c1ccccc1C)[C@@H]1CSCN1[C@@]21C(=O)Nc2ccc(Cl)cc21 | 11 (≈ 6.27 µg/mL) |
| COc1ccccc1/C=C1\CN(C)C[C@@]2(C1=O)[C@H](c1ccccc1OC)[C@@H]1CSCN1[C@@]21C(=O)Nc2ccc([N+](=O)[O-])cc21 | 5.1 (≈ 3.12 µg/mL) |
| CN1C/C(=C\c2ccc(Br)cc2)C(=O)[C@]2(C1)[C@H](c1ccc(Br)cc1)[C@@H]1CSCN1[C@@]21C(=O)Nc2ccc([N+](=O)[O-])cc21 | 1.1 (≈ 0.781 µg/mL) |
| NNC(=O)c1ccncc1 [ISONIAZID] | 0.4 (≈ 0.0549 µg/mL) |
